The source made the active and inactive calls. The rule behind the calls is not given here.
How the values were obtained:
[1] = biological target: Sodium-dependent serotonin transporter (Rattus norvegicus, UniProt P31652); experiment: Displacement of [3H]-citalopram from SERT in rat cerebral cortex after 1 hr by liquid scintillation counting analysis; assay type: tissue-based
[2] = biological target: T1, 5-hydroxytryptamine receptor 1A (Rattus norvegicus, UniProt P19327); experiment: Displacement of [3H]-8-OH-DPAT from 5HT1A receptor in rat hippocampal membranes after 20 mins; assay type: cell membranes, Hippocampus, Membrane
T1 sequence (P19327 whole entry): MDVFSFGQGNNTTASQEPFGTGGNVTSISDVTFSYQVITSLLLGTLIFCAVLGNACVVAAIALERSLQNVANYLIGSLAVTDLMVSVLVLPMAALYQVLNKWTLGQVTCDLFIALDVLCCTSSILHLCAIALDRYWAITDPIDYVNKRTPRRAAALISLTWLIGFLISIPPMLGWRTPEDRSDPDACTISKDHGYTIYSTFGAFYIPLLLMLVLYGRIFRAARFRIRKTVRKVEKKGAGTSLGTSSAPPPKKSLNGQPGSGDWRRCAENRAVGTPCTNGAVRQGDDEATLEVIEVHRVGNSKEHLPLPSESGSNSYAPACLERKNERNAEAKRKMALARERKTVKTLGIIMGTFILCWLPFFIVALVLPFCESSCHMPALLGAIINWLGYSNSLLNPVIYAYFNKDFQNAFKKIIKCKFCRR

Mus musculus [3] = experiment: Induction of hypothermia in CD1 mouse assessed as change in rectal body temperature at 2.5 mg/kg, ip administered 30 mins prior to test measured after 60 mins in presence of WAY 100635 relative to control; assay type: functional, organism-based; set-up: dose 2.5 mg/kg
Mus musculus [4] = experiment: Induction of hypothermia in CD1 mouse assessed as change in rectal body temperature at 2.5 mg/kg, ip administered 30 mins prior to test measured after 30 mins in presence of WAY 100635 relative to control; assay type: functional, organism-based; set-up: dose 2.5 mg/kg
Mus musculus [5] = experiment: Induction of hypothermia in CD1 mouse assessed as change in rectal body temperature at 5 mg/kg, ip administered 30 mins prior to test measured after 120 mins relative to control; assay type: functional, organism-based; set-up: dose 5 mg/kg
Mus musculus [6] = experiment: Induction of hypothermia in CD1 mouse assessed as change in rectal body temperature at 5 mg/kg, ip administered 30 mins prior to test measured after 90 mins relative to control; assay type: functional, organism-based; set-up: dose 5 mg/kg
Mus musculus [7] = experiment: Induction of hypothermia in CD1 mouse assessed as change in rectal body temperature at 5 mg/kg, ip administered 30 mins prior to test measured after 60 mins relative to control; assay type: functional, organism-based; set-up: dose 5 mg/kg
Mus musculus [8] = experiment: Induction of hypothermia in CD1 mouse assessed as change in rectal body temperature at 5 mg/kg, ip administered 30 mins prior to test measured after 30 mins relative to control; assay type: functional, organism-based; set-up: dose 5 mg/kg
Mus musculus [9] = experiment: Induction of hypothermia in CD1 mouse assessed as change in rectal body temperature at 2.5 mg/kg, ip administered 30 mins prior to test measured after 120 mins relative to control; assay type: functional, organism-based; set-up: dose 2.5 mg/kg
Mus musculus [10] = experiment: Induction of hypothermia in CD1 mouse assessed as change in rectal body temperature at 2.5 mg/kg, ip administered 30 mins prior to test measured after 90 mins relative to control; assay type: functional, organism-based; set-up: dose 2.5 mg/kg
Mus musculus [11] = experiment: Induction of hypothermia in CD1 mouse assessed as change in rectal body temperature at 2.5 mg/kg, ip administered 30 mins prior to test measured after 60 mins relative to control; assay type: functional, organism-based; set-up: dose 2.5 mg/kg
Mus musculus [12] = experiment: Induction of hypothermia in CD1 mouse assessed as change in rectal body temperature at 2.5 mg/kg, ip administered 30 mins prior to test measured after 30 mins relative to control; assay type: functional, organism-based; set-up: dose 2.5 mg/kg
Mus musculus [13] = experiment: Antidepressant activity in CD1 mouse assessed as reduction in immobility time at 1 to 2 mg/kg, sc measured during final 4 mins in 6 mins test session after 2 mins habituation period by forced swimming test; assay type: functional, organism-based
[14] = biological target: 5-hydroxytryptamine receptor 7 (Homo sapiens, UniProt P34969); experiment: Displacement of [3H]-5CT from human 5HT7 receptor expressed in HEK293 cells after 1 hr; assay type: cell-based
[15] = biological target: 5-hydroxytryptamine receptor 6 (Homo sapiens, UniProt P50406); experiment: Displacement of [3H]-LSD from human 5HT6 receptor expressed in HEK293 cells after 1 hr; assay type: cell-based
D(2) dopamine receptor = D(2) dopamine receptor (Homo sapiens, UniProt P14416); experiment: Displacement of [3H]-raclopride from human dopamine D2L receptor expressed in HEK293 cells after 1 hr; assay type: cell-based
[16] = biological target: 5-hydroxytryptamine receptor 2A (Rattus norvegicus, UniProt P14842); experiment: Displacement of [3H]-ketanserin from 5HT2A in rat cerebral cortex 20 mins by liquid scintillation counting analysis; assay type: tissue-based
Mus musculus [17] = experiment: Antidepressant activity in CD1 mouse assessed as reduction in immobility time at 2.5 to 5 mg/kg, ip measured during final 4 mins in 6 mins test session after 2 mins habituation period by forced swimming test; assay type: functional, organism-based
Mus musculus [18] = experiment: Induction of hypothermia in CD1 mouse assessed as change in rectal body temperature at 5 mg/kg, ip administered 30 mins prior to test measured after 60 mins in presence of WAY 100635 relative to control; assay type: functional, organism-based; set-up: dose 5 mg/kg
Mus musculus [19] = experiment: Induction of hypothermia in CD1 mouse assessed as change in rectal body temperature at 5 mg/kg, ip administered 30 mins prior to test measured after 30 mins in presence of WAY 100635 relative to control; assay type: functional, organism-based; set-up: dose 5 mg/kg

Chain of 5-hydroxytryptamine receptor 7 (P34969 whole entry): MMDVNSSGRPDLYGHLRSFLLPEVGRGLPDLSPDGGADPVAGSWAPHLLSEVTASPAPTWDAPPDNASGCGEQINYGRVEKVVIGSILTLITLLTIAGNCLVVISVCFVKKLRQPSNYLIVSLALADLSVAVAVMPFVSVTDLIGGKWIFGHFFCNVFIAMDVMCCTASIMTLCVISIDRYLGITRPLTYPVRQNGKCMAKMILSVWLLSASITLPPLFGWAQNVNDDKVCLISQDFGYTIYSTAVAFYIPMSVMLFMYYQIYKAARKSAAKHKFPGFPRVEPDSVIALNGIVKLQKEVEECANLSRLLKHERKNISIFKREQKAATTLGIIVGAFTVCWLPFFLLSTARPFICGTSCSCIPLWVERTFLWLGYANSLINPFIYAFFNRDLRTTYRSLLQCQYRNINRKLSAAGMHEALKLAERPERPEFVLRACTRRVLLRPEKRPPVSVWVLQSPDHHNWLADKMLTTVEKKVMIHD
Chain of 5-hydroxytryptamine receptor 6 (P50406 whole entry): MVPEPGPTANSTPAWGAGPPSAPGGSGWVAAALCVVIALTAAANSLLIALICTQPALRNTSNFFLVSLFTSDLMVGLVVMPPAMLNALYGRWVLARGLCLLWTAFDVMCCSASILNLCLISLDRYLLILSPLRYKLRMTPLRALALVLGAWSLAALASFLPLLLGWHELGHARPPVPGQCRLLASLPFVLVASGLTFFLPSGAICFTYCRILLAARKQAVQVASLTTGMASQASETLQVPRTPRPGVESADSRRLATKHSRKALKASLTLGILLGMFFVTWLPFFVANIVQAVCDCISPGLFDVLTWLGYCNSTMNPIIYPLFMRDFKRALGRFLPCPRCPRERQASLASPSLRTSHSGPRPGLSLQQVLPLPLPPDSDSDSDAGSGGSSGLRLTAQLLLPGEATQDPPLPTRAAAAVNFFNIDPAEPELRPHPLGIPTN
Chain of 5-hydroxytryptamine receptor 2A (P14842 whole entry): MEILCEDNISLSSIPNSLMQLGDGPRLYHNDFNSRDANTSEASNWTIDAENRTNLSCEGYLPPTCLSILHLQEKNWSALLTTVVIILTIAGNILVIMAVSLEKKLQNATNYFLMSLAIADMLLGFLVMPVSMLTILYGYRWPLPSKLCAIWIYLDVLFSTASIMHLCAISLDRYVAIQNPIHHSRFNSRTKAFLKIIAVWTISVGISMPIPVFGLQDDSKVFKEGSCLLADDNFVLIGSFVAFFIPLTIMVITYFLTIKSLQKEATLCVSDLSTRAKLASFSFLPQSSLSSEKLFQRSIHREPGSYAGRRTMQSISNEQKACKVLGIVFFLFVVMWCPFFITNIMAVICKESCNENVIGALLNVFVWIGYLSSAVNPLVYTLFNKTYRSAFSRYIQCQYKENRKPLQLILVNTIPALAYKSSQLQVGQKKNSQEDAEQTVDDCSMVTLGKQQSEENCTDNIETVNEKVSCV
Chain of Sodium-dependent serotonin transporter (P31652 whole entry): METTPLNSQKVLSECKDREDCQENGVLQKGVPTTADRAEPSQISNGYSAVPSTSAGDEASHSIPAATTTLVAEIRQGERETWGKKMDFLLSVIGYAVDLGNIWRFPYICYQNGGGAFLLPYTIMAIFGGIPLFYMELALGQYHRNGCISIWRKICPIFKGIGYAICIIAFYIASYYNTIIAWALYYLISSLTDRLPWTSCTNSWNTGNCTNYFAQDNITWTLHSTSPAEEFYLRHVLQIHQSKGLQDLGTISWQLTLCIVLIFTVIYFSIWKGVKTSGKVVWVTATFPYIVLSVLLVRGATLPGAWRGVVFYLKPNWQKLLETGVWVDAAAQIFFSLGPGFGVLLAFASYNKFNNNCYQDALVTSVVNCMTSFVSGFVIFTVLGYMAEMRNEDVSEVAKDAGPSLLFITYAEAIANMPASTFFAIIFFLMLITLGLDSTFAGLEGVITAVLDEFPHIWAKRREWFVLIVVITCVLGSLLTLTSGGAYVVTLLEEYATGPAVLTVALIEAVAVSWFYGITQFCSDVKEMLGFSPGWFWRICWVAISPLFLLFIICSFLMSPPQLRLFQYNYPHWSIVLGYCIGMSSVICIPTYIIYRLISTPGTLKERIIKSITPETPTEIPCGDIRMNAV
Chain of D(2) dopamine receptor (P14416 whole entry): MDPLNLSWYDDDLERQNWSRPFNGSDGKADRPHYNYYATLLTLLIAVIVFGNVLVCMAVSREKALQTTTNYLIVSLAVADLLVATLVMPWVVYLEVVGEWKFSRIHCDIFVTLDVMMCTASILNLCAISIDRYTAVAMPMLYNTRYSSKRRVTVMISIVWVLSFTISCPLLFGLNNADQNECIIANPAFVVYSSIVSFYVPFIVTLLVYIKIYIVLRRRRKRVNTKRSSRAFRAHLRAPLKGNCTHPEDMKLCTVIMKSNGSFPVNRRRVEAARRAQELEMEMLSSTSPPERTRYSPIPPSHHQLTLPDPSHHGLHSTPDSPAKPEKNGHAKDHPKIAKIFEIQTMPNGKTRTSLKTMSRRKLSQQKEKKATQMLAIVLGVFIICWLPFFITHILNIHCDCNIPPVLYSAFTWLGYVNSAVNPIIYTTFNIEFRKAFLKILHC

SMILES: O=C1CC(c2c[nH]c3ccccc23)C(=O)N1CCCCN1CC=C(c2c[nH]c3ccc(Br)cc23)CC1 (racemic)
- Ki [1]: 0.208 µM
- Ki [2]: 0.0591 µM

SMILES: O=C1CC(c2c[nH]c3ccccc23)C(=O)N1CCCN1CCC(c2c[nH]c3ccc(F)cc23)CC1 (racemic)
- Ki [1]: 0.215 µM
- Ki [2]: 0.122 µM

SMILES: O=C1CC(c2c[nH]c3ccccc23)C(=O)N1CCCCN1CCC(c2c[nH]c3ccccc23)CC1 (racemic)
- deltaT (Mus musculus [3]): -1.1 °C
- deltaT (Mus musculus [4]): -1 °C
- deltaT (Mus musculus [5]): -2.1 °C
- deltaT (Mus musculus [6]): -2.1 °C
- deltaT (Mus musculus [7]): -2.8 °C
- deltaT (Mus musculus [8]): -2.4 °C
- deltaT (Mus musculus [9]): -1.2 °C
- deltaT (Mus musculus [10]): -1.3 °C
- deltaT (Mus musculus [11]): -1.5 °C
- deltaT (Mus musculus [12]): -1.3 °C
- Ki [1]: 0.0057 µM
- Ki [2]: 0.0157 µM

SMILES: O=C1CC(c2c[nH]c3ccccc23)C(=O)N1CCCN1CC=C(c2c[nH]c3ccc(Br)cc23)CC1 (racemic)
- Ki [1]: 0.182 µM
- Ki [2]: 0.111 µM

SMILES: O=C1CC(c2c[nH]c3ccccc23)C(=O)N1CCN1CC=C(c2c[nH]c3ccc(Br)cc23)CC1 (racemic)
- Ki [1]: 0.673 µM
- Ki [2]: 0.324 µM

SMILES: O=C1CC(c2c[nH]c3ccccc23)C(=O)N1CCCN1CC=C(c2c[nH]c3ccccc23)CC1 (racemic)
- Ki [1]: 0.004 µM
- Ki [2]: 0.161 µM

SMILES: O=C1CC(c2c[nH]c3ccccc23)C(=O)N1CCN1CC=C(c2c[nH]c3ccc(Cl)cc23)CC1 (racemic)
- Ki [1]: 0.0967 µM
- Ki [2]: 0.406 µM

SMILES: COc1ccc2[nH]cc(C3=CCN(CCCN4C(=O)CC(c5c[nH]c6ccccc56)C4=O)CC3)c2c1 (racemic)
- Ki [1]: 0.125 µM
- Ki [2]: 0.21 µM

SMILES: CCCN(CCC)C1CCc2cccc(O)c2C1 (configuration not stated)
- Activity (Mus musculus [13]): Active

SMILES: O=C1CC(c2c[nH]c3ccccc23)C(=O)N1CCN1CC=C(c2c[nH]c3ccccc23)CC1 (racemic)
- Ki [1]: 0.0338 µM
- Ki [2]: 0.25 µM

SMILES: O=C1CC(c2c[nH]c3ccccc23)C(=O)N1CCCCN1CCC(c2c[nH]c3ccc(F)cc23)CC1 (racemic)
- Ki [14]: 0.196 µM
- Ki [15]: 0.063 µM
- Ki (D(2) dopamine receptor): 0.014 µM
- Ki [16]: 0.071 µM
- Ki [1]: 0.505 µM
- Ki [2]: 0.0075 µM

SMILES: COc1ccc2[nH]cc(C3=CCN(CCCCN4C(=O)CC(c5c[nH]c6ccccc56)C4=O)CC3)c2c1 (racemic)
- Activity (Mus musculus [17]): inactive
- deltaT (Mus musculus [18]): -0.3 °C
- deltaT (Mus musculus [19]): -0.4 °C
- deltaT (Mus musculus [5]): -0.9 °C
- deltaT (Mus musculus [6]): -1.1 °C
- deltaT (Mus musculus [7]): -1.1 °C
- deltaT (Mus musculus [8]): -1.1 °C
- deltaT (Mus musculus [9]): -0.4 °C
- deltaT (Mus musculus [10]): -0.7 °C
- deltaT (Mus musculus [11]): -0.5 °C
- deltaT (Mus musculus [12]): -0.5 °C
- Ki [1]: 0.0462 µM
- Ki [2]: 0.0032 µM

SMILES: O=C1CC(c2c[nH]c3ccccc23)C(=O)N1CCCCN1CC=C(c2c[nH]c3ccc(Cl)cc23)CC1 (racemic)
- Ki [1]: 0.0744 µM
- Ki [2]: 0.0687 µM

SMILES: O=C1CC(c2c[nH]c3ccccc23)C(=O)N1CCCCN1CC=C(c2c[nH]c3ccccc23)CC1 (racemic)
- deltaT (Mus musculus [18]): -1.2 °C
- deltaT (Mus musculus [19]): -1.2 °C
- deltaT (Mus musculus [5]): -1.4 °C
- deltaT (Mus musculus [6]): -1.5 °C
- deltaT (Mus musculus [7]): -1.4 °C
- deltaT (Mus musculus [8]): -1.5 °C
- deltaT (Mus musculus [9]): -0.9 °C
- deltaT (Mus musculus [10]): -0.9 °C
- deltaT (Mus musculus [11]): -0.6 °C
- deltaT (Mus musculus [12]): -0.7 °C
- Ki [1]: 0.0113 µM
- Ki [2]: 0.0125 µM

SMILES: O=C1CC(c2c[nH]c3ccccc23)C(=O)N1CCCCN1CC=C(c2c[nH]c3ccc(F)cc23)CC1 (racemic)
- Activity (Mus musculus [17]): inactive
- deltaT (Mus musculus [18]): -0.2 °C
- deltaT (Mus musculus [19]): -0.5 °C
- deltaT (Mus musculus [5]): -1.2 °C
- deltaT (Mus musculus [6]): -1.3 °C
- deltaT (Mus musculus [7]): -1.5 °C
- deltaT (Mus musculus [8]): -1.6 °C
- deltaT (Mus musculus [9]): -0.7 °C
- deltaT (Mus musculus [10]): -0.7 °C
- deltaT (Mus musculus [11]): -0.7 °C
- deltaT (Mus musculus [12]): -0.6 °C
- Ki [1]: 0.02 µM
- Ki [2]: 0.0176 µM

SMILES: O=C1CC(c2c[nH]c3ccccc23)C(=O)N1CCCN1CC=C(c2c[nH]c3ccc(F)cc23)CC1 (racemic)
- Ki [1]: 0.0052 µM
- Ki [2]: 0.106 µM

SMILES: COc1ccc2[nH]cc(C3CCN(CCCCN4C(=O)CC(c5c[nH]c6ccccc56)C4=O)CC3)c2c1 (racemic)
- Ki [14]: 0.345 µM
- Ki [15]: 0.159 µM
- Ki (D(2) dopamine receptor): 0.161 µM
- Ki [16]: 0.498 µM
- Ki [1]: 0.21 µM
- Ki [2]: 0.0022 µM

SMILES: O=C1CC(c2c[nH]c3ccccc23)C(=O)N1CCN1CCC(c2c[nH]c3ccc(F)cc23)CC1 (racemic)
- Ki [14]: 1.16 µM
- Ki [15]: 1.15 µM
- Ki (D(2) dopamine receptor): 0.08 µM
- Ki [16]: 0.384 µM
- Ki [1]: 0.381 µM
- Ki [2]: 0.0081 µM

SMILES: COc1ccc2[nH]cc(C3CCN(CCCN4C(=O)CC(c5c[nH]c6ccccc56)C4=O)CC3)c2c1 (racemic)
- Ki [14]: 0.589 µM
- Ki [15]: 0.264 µM
- Ki (D(2) dopamine receptor): 0.343 µM
- Ki [16]: 11.6 µM
- Ki [1]: 0.221 µM
- Ki [2]: 0.0326 µM

SMILES: COc1ccc2[nH]cc(C3=CCN(CCN4C(=O)CC(c5c[nH]c6ccccc56)C4=O)CC3)c2c1 (racemic)
- Ki [1]: 0.784 µM
- Ki [2]: 1.74 µM

SMILES: O=C1CC(c2c[nH]c3ccccc23)C(=O)N1CCN1CC=C(c2c[nH]c3ccc(F)cc23)CC1 (racemic)
- Ki [1]: 0.0684 µM
- Ki [2]: 0.372 µM

SMILES: O=C1CC(c2c[nH]c3ccccc23)C(=O)N1CCCN1CCC(c2c[nH]c3ccccc23)CC1 (racemic)
- Ki [1]: 0.354 µM
- Ki [2]: 0.0685 µM

SMILES: COc1ccc2[nH]cc(C3CCN(CCN4C(=O)CC(c5c[nH]c6ccccc56)C4=O)CC3)c2c1 (racemic)
- Ki [1]: 1.85 µM
- Ki [2]: 0.352 µM

SMILES: O=C1CC(c2c[nH]c3ccccc23)C(=O)N1CCN1CCC(c2c[nH]c3ccccc23)CC1 (racemic)
- Ki [1]: 0.056 µM
- Ki [2]: 0.364 µM

SMILES: O=C1CC(c2c[nH]c3ccccc23)C(=O)N1CCCN1CC=C(c2c[nH]c3ccc(Cl)cc23)CC1 (racemic)
- Ki [1]: 0.0507 µM
- Ki [2]: 0.285 µM

Reference: ChEMBL document CHEMBL2375249, “Synthesis and biological evaluation of novel pyrrolidine-2,5-dione derivatives as potential antidepressant agents. Part 1” (Eur J Med Chem, 2013)
